The values below come from patent US20140221656A1, “CRYSTALLINE SOLVATES OF 6-(PIPERIDIN-4-YLOXY)-2H-ISOQUINOLIN-1-ONE HYDROCHLORIDE” (SANOFI, priority 2011, published 2014).

Holding throughout (format): physicochemical
A short description of data set [1]: Thermogravimetric analysis (TGA). The method, then:
On heating the dihydrate in a dry environment, a significant weight loss starts already at slightly elevated temperature and ends at about 110° C.
In this temperature range, transformation to phase 3 was observed as determined by XRPD.
The thermogravimetric analyses were performed with a METTLER TGA851e (module TGA/SDTA851e/SF1100/042). 100 μl Al crucibles sealed with lid were used. The sample changer punches a pinhole into the lid immediately before the start of the measurement. The oven cell is purged with a nitrogen gas flow of about 50 mL/min. The measurements typically start with a hold time of about 25 min at 25° C., followed by heating of the sample with a rate of 10°/min. Temperature and weight loss were checked by a calcium oxalate hydrate reference sample.

A short description of data set [2]: Dynamic vapor sorption (DVS) water vapor sorption and desorption isotherms. The conditions noted are these: DVS 25° C.; for hygroscopicity / water content as a function of relative humidity: FIG. 13 and 14. As to the method: Moreover, the dihydrate may also be characterized by its DVS (dynamic vapor sorption) water vapor sorption and desorption isotherms measured at 25° C. as shown in FIG. 3. Before starting the sorption cycle the dihydrate probe is treated with dry nitrogen gas resulting in a transformation into phase 2 as shown by humidity resolved XRPD. […] In the sorption cycle the water content of the probe quickly increases when phase 2 is exposed to relative humidities between 1 and 20% and remains almost constant between 20 and 95%. In the desorption cycle the water content remains almost constant when the dihydrate is exposed to relative humidities between 95% and 20%. A weight loss starts below 20% relative humidity and becomes strong below 10%, especially below 5%. The change in mass at low relative humidity is completely reversible and when the humidity increases again, the rehydration proceeds rapidly with small samples. However, for bulk samples rehydration of over-dried samples can take considerably longer and rehydration may require several days. Almost identical water sorption and desorption isotherms are observed at 40° C.
With decreasing humidity the dihydrate converts back at low humidity (below about 10% r.h.) into phase 2 (cycle 1, desorption). Phase 2 then converts into the dihydrate with increasing humidity and along the same isotherm it converts back with decreasing humidity into polymorph 2 (cycle 2, see also FIG. 3)
Moisture sorption/desorption isotherms were recorded on a DVS-1 from Surface Measurement Systems. […] Typical total measurement times for both cycles are about 20-30 hours.

Data set [3] is described as follows: Maturation experiments (slurry conversion), relative stability of polymorphs and hydrate. The conditions noted are these: for relative thermodynamic stability among the phases: suspensions of phase mixtures in dry organic solvents, 0 to 40° C., hydrochloride. The method, then:
By maturation experiments (slurry conversion) at the given temperature the relative stability of the polymorphs of compound (I) and the hydrate was investigated.
The following maturation experiment was performed by stirring the suspension under the specified conditions, starting from the dihydrate. The sample was investigated by XRPD in suspension, after vacuum filtration as well as after drying over night at 40° C. in vacuum (<50 mbar). The isolated material was also investigated by DSC and TGA.
(a) Maturation of 0.210 g dihydrate of compound (I) in 0.4 mL of water at 20° C. for 35 days. Similar, maturation of the dihydrate was done in water/methanol (vol/vol 1:1) and in water/ethanol (vol/vol 1:1).
The following maturation experiments were performed by stirring the suspension under the specified conditions and isolating the solid by vacuum filtration, starting from dihydrate of compound (I). The sample was investigated by XRPD in suspension, after vacuum filtration as well as after drying. The isolated material was also investigated by DSC and TGA.
(b) Maturation of 0.203 g of dihydrate of compound (I) in 1.2 mL of methanol at 20° C. for 35 days.
(c) Maturation was also done as in (b) by using ethanol, 1-propanol or 2-propanol.
(d) Maturation of […] of dihydrate of compound (I) in 2.0 mL of 2-butanol at 20° C. for 35 days.
The following maturation experiments of suspensions of phase mixtures of the dihydrate of compound (I) and phases consisting of polymorphs 1, 3 and 4 were performed at 0, 20 and 40° C. The product was isolated by vacuum filtration and analyzed after drying.
(e) Maturation of a mixture of 0.3 mg phase 1, 23.9 mg phase 3, 29.9 mg phase 4 and 27.9 mg of the dihydrate in 0.7 mL 2-propanol at 0° C. for 2 weeks.
(f) Maturation of a mixture of 0.3 mg phase 1, 27.2 mg phase 3, 18.1 mg phase 4 and 29.6 mg of the dihydrate in 2.0 mL 2-butanol at 0° C. for 2 weeks.
(g) Similar experiments as in e) and f) were done with corresponding mixtures of phase 1, phase 3, phase 4 and the dihydrate in 2-propanol and 2-butanol at 20° C. and at 40° C., respectively.

Data set [4] can be described thus: Drying of the dihydrate, retention of crystal structure. The conditions noted are these: dried dihydrate. An excerpt:
In a further embodiment of the hydrate the water content is 11.4% (w/w). in a further embodiment the hydrate contains 2.0 molecules water per molecule (I). Although the hydrate phase typically contains about 10-12.5% water it can also occur with lower water content. The crystal structure of the hydrate remains even if the dihydrate is dried and the remaining water content is down to about 3%. Water uptake is reversible if humidity in the environment is raised again. The water content in the isolated product depends on the drying conditions used during work up of the hydrate after crystallisation.

The nature of data set [5]: Temperature-resolved XRPD. As to the method: Based on these findings the dihydrate is stable below 90° C. and thus also at room temperature. Therefore, in comparison to the other described anhydrous polymorphs, the dihydrate is particularly suitable when a high stability is desired. It is the only one that can be stored at relative humidities between 20 and 95% in different environments below 90° C., which are usual storage conditions, without the risk of transformation into another described crystalline phase. Even if exposed to a very dry environment, a possible water loss is reversible and the missing water is gained back once the compound is back in an environment having usual humidity conditions. Therefore, the dihydrate is in particular suitable for the preparation of medicaments and pharmaceutical compositions with improved stability.
All X-ray powder diffraction was performed with Stoe Stadi-P transmission diffractometers using CuKα1 radiation (Lambda is 1.54060 Angström). For room temperature powder diffraction, linear position sensitive detectors were used; while for temperature-resolved XRPD image plate position sensitive detectors (IP-PSDs) were used. Unless stated otherwise, X-ray powder diffraction was performed at room temperature. […] The measured data were evaluated and plotted with the Software WinXPOW V2.12.

Data set [6] in a line: Humidity-controlled XRPD in a humidity chamber. The conditions noted are these: for time until transformation into the dihydrate at 95% relative humidity: held at 95% r.h., hydrochloride. The method, then: When humidity-controlled XRPD was performed at 25 and 40° C., widely identical results were obtained.
Exposure to elevated humidity causes transformation to the dihydrate as determined with humidity-controlled XRPD performed at 25° C. […] Phase 1 transformed into the dihydrate after about 15 min at 95%, which in turn changed to phase 2 after about 40 min at 2% r.h.
Exposure to elevated humidity causes transformation to the dihydrate as determined by humidity-controlled XRPD at 25° C. […] As a result phase 3 transformed into the hydrate after about 30 min at 95%, which in turn changed to phase 2 after about 30 min at 2% r.h.
Exposure to elevated humidity causes transformation to the dihydrate as determined by humidity-controlled XRPD. […] As a result phase 4 transformed into the dihydrate after about 15 min at 95%, which in turn changed to phase 2 after about 20 min at 2% r.h.
All X-ray powder diffraction was performed with Stoe Stadi-P transmission diffractometers using CuKα1 radiation (Lambda is 1.54060 Angström). For room temperature powder diffraction, linear position sensitive detectors were used; while for temperature-resolved XRPD image plate position sensitive detectors (IP-PSDs) were used. Unless stated otherwise, X-ray powder diffraction was performed at room temperature. Dry samples were investigated in a flat preparation whereas suspensions were investigated in quartz glass capillaries. The measured data were evaluated and plotted with the Software WinXPOW V2.12.

Data set [7] is described as follows: Storage under usual storage conditions (25° C./65% relative humidity). As to the method:
Moreover, the corresponding amorphous material is hygroscopic and the water content varies much stronger with the relative humidity compared to the dihydrate. This water uptake and variability in water content makes precise dosing during drug product manufacturing difficult. In contrast, the dihydrate has been proven to be stable for more than two years under usual storage conditions (no detectable decomposition at 25° C./65% relative humidity). Accordingly, the crystalline dihydrate is therefore the preferred solid form for drug product manufacturing.

Data set [8] can be described thus: Stability of the solvate outside the mother liquor. The conditions noted are these: in the presence of humidity starts to transform to the hydrate. An excerpt: Thus, a further aspect of the present invention relates to the use of the methyl acetate solvate of compound (I) for the production of the hydrate, for example by subjecting it to conditions, such as an elevated temperature and/or humidity which facilitate the loss of methyl acetate and attracting water.

The nature of data set [9]: Storage at 20° C. and 75% relative humidity. As to the method: Also storage of phase 1 at 20° C. and 75% relative humidity caused complete conversion to the dihydrate within 3 weeks. The rate of conversion correlates with the relative humidity.
(§1) Also storage of phase 3 at 20° C. and 75% relative humidity caused complete conversion to the dihydrate within 3 weeks. The rate of conversion correlates with the relative humidity. When suspended in water, complete transformation into the dihydrate was observed almost immediately (<10 min).
Also storage of phase 4 at 20° C. and 75% relative humidity caused complete conversion to the dihydrate within 3 weeks. The rate of conversion apparently correlates with the relative humidity.

Data set [10] can be described thus: Suspension in water, transformation into the dihydrate. The method, then:
as §1

“Also recorded” adds a separate entry of the source. Counter-ions that a name gives are not always drawn.

With `O=c1[nH]ccc2cc(OC3CCNCC3)ccc12` [1,4-dioxane solvate, 6-(Piperidin-4-yloxy)-2H-isoquinolin-1-one hydrochloride×0.5 1,4-dioxane solvate], the “stability of the solvate (in words)” value in data set [1] (from TGA / temperature-resolved XRPD) is listed as “relatively stable”. In [1] (mainly in a temperature range from 80 to 120° C.), this compound gave a TGA weight loss of 16.6%.

Regarding `O=c1[nH]ccc2cc(OC3CCNCC3)ccc12` [amorphous material, 6-(Piperidin-4-yloxy)-2H-isoquinolin-1-one hydrochloride], the “hygroscopicity / water content as a function of relative humidity” value in data set [2] (hydrochloride) is on record as “hygroscopic”.

Consider `O=c1[nH]ccc2cc(OC3CCNCC3)ccc12` [dihydrate, 6-(Piperidin-4-yloxy)-2H-isoquinolin-1-one hydrochloride dihydrate], for which the “solid phase after maturation in 2-butanol” value in [3] (2-butanol, 20° C., 35 days, after drying) is “Polymorph 4 was obtained”. Besides, in [3] (methanol, ethanol, 1-propanol or 2-propanol, 20° C., 35 days), the “solid phase after maturation in alcohols” value was “polymorph 3 was obtained”. For the same compound, the “solid phase after maturation in aqueous media” value in data set [3] (water, water/methanol 1:1, water/ethanol 1:1, 20° C., 35 days) is recorded as “remained as dihydrate”. Moreover, the “remaining water content down to which the hydrate crystal structure remains on drying” value in data set [4] was “about 3%”. Besides, the “hygroscopicity / water content as a function of relative humidity” value in data set [2] (hydrochloride dihydrate) was “maintains a quite constant water content”. For the same compound, the “relative humidity below which the dihydrate converts into phase 2” value in data set [2] (cycle 1, desorption) is given as “below 10 % r.h”. The “relative humidity below which weight loss starts” value in data set [2] (desorption cycle) is given as “below 20%”. The “TGA weight loss (water) on heating” value in data set [1] (heating in a dry environment, ends at about 110° C.) is given as 10.8 mass-%. Besides, the “temperature below which the form is stable” value in [5] (based on temperature-resolved XRPD findings) was “below 90 °C”. In addition, the “temperature at which transformation to phase 3 starts” value in [5] (heating, accompanied by loss of water) is “about 90 °C”. The “relative humidity at which the hydrate reversibly transforms into phase 2” value in data set [6] (humidity chamber XRPD, r.h. cycled between 2% and 95%) amounted to 2 % r.h. The “time until the dihydrate changed to phase 2 at 2% r.h.” value in data set [6] (humidity-controlled XRPD, held at 2% r.h., hydrochloride dihydrate) is given as “about 30 min”. Also, in [7], the “time proven stable under usual storage conditions (no detectable decomposition)” value is given as “more than two”.

Turning to `O=c1[nH]ccc2cc(OC3CCNCC3)ccc12` [methyl acetate solvate, 6-(Piperidin-4-yloxy)-2H-isoquinolin-1-one hydrochloride], the “stability outside the mother liquor (in words)” value in data set [8] is on record as “only moderately stable”.

Turning to `O=c1[nH]ccc2cc(OC3CCNCC3)ccc12` [phase 1, 6-(Piperidin-4-yloxy)-2H-isoquinolin-1-one hydrochloride], the “time to complete conversion to the dihydrate on storage” value (“time to complete conversion” for short) in data set [9] is given as at most 3 weeks. Also, in data set [3], the “relative thermodynamic stability among the phases” value was “only a metastable polymorph”. The “time until transformation into the dihydrate at 95% relative humidity” value in [6] (humidity-controlled XRPD) is recorded as “about 15 min”.

Take `O=c1[nH]ccc2cc(OC3CCNCC3)ccc12` [phase 3, 6-(Piperidin-4-yloxy)-2H-isoquinolin-1-one hydrochloride]: the “time to complete transformation into the dihydrate when suspended in water” value in data set [10] was under 10 min. Moreover, the “time to complete conversion” value in data set [9] is on record as at most 3 weeks. Also, the “relative thermodynamic stability among the phases” value in data set [3] is reported as “thermodynamically most stable anhydrous form; also recorded: most stable anhydrous phase”. The “relative humidity above which phase changes into the dihydrate” value in [2] (cycle 1, sorption) was “above 80%”. In data set [6] (humidity-controlled XRPD), the “time until transformation into the dihydrate at 95% relative humidity” value is listed as “about 30 min”.

For the compound `O=c1[nH]ccc2cc(OC3CCNCC3)ccc12` [phase 4, 6-(Piperidin-4-yloxy)-2H-isoquinolin-1-one hydrochloride], in [9], the “time to complete conversion” value is reported as at most 3 weeks. Further, the “relative thermodynamic stability among the phases” value in [3] is listed as “only a metastable one”. For the same compound, the “time until transformation into the dihydrate at 95% relative humidity” value in data set [6] (humidity-controlled XRPD) is “about 15 min”.
